In this experiment the target is T1, human leukocyte elastase (HLE) (Homo sapiens, UniProt P08246).
T1 construct: purchased Calbiochem Lot 702038
T1 sequence (P08246 30-267): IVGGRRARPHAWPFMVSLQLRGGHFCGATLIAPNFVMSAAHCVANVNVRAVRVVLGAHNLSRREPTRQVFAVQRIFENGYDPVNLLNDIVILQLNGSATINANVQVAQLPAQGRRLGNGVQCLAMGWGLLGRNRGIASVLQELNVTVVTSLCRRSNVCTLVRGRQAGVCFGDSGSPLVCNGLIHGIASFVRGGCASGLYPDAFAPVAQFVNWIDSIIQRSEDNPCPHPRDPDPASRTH
Nature of the experiment: Kinetic parameters for HLE inhibition (release of 7-amino-4-methylcoumarin from N-methoxysuccinyl-alanylprolyl-valyl-7-amido-4-methylcoumarin, fluorescence detection). The format is biochemical. The settings on record: 37° C., 0.027 M pH 7.4 phosphate buffer, 1% DMSO, 1% MeCN, NaCl (I=0.15); for kon: read-out: kon (rate of formation of the HLE-inhibitor complex); for Ki: steady state, read-out: Ki^ss (apparent dissociation constant of the HLE-inhibitor complex at steady state). The source says:
Km =Michaelis constant for the enzyme-substrate pair (independently determined under the same experimental conditions).

By kon is commonly meant a measure of how fast the partners come together.

On to `CC(=O)OCC1=C(C(=O)SC(C)(C)C)N2C(=O)[C@H](Cl)[C@H]2S(=O)(=O)C1` [Comp. 3], for which the kon came out at 480000 M⁻¹ s⁻¹ and the Ki was 2.6 nM. As to `CC(=O)OCC1=C(C(=O)SCc2ccccc2)N2C(=O)[C@H](Cl)[C@H]2S(=O)(=O)C1` [Comp. 11, Benzyl 3-acetoxymethyl-7S-chloro-8-oxo-5-thia-1-azabicyclo-[4,2,0]oct-2-ene-5,5-dioxide-2-carbothiolate], the kon turned out to be 1.26e+06 M⁻¹ s⁻¹ and the Ki stood at 8.2 nM. In the case of `COCC1=C(C(=O)SC(C)(C)C)N2C(=O)[C@H](Cl)[C@H]2S(=O)(=O)C1` [Comp. 59, t-Butyl 7S-chloro-3-methoxymethyl-8-oxo-5-thia-1-azabicyclo [4,2,0]oct-2-ene-5,5-dioxide-2-carbothiolate], the kon turned out to be 150000 M⁻¹ s⁻¹ and the Ki stood at 16 nM. As to `Cn1nnnc1SCC1=C(C(=O)SC(C)(C)C)N2C(=O)[C@H](Cl)[C@H]2S(=O)(=O)C1` [Comp. 60, t-Butyl 7S-chloro-3-(1-methyl-1,2,3,4-tetrazol-5-yl) thiomethyl-8-oxo-5-thia-1-azabicyclo[4,2,0]oct-2-ene-5,5-dioxide-2-carbothiolate], the Ki worked out at 4.3 nM.

The values above are taken from patent US5356888A, “1,1-dioxo-cephem-4-carbothiolic acid derivatives” (Farmitalia Carlo Erba, priority 1988, dated 1994).
